# Results from ChEMBL document CHEMBL1122332, “Synthesis of esters of phosphonoformic acid and their antiherpes activity” (J Med Chem, 1983).
# Active and inactive are the calls of the source. No cut-off for these calls is given here.
# System: Human alphaherpesvirus 1
# Test: Evaluated for antiviral activity against cutaneous HSV-1 C42 infections in guinea pig; Active
# Assay type: functional, organism-based
row,Structure (SMILES),Effect
1,CCOP(=O)(O)C(=O)O,Active
2,COP(=O)(O)C(=O)O,Active
3,CCOP(=O)(Oc1ccc(OC)cc1)C(=O)Oc1ccccc1 (configuration not stated),Active
4,O=C(O)P(=O)(O)O,Active
5,CCOC(=O)c1ccc(OC(=O)P(=O)(O)O)cc1,Active
6,O=C(O)P(=O)(O)Oc1ccc2c(c1)CCC2,Active
7,CCOP(=O)(O)C(=O)Oc1ccc(OC)cc1,Active
8,Cc1ccc(OC(=O)P(=O)(O)O)cc1,Active
9,O=C(O)P(=O)(O)Oc1ccccc1,Active
10,O=C(Oc1ccc(Cl)c(Cl)c1)P(=O)(O)O,Active
11,COc1ccc(OP(=O)(O)C(=O)O)cc1,Active
12,Cc1ccc(OP(=O)(O)C(=O)Oc2ccccc2)cc1,Active
13,CCOP(=O)(O)C(=O)Oc1ccc(Cl)cc1,Active
14,O=C(O)P(=O)(O)OC12CC3CC(CC(C3)C1)C2,Active
15,O=C(Oc1ccc(Cl)cc1)P(=O)(O)O,Active
16,O=C(Oc1ccccc1)P(=O)(O)O,Active
17,COP(=O)(O)C(=O)Oc1ccccc1,Active
18,O=C(Oc1ccccc1)P(=O)(O)Oc1ccccc1,Active
19,COc1ccc(OC(=O)P(=O)(O)O)cc1,Active
20,O=C(Oc1ccccc1)P(=O)(Oc1ccccc1)Oc1ccccc1,Active
21,Cc1cccc(C)c1OP(=O)(O)C(=O)O,Active
22,Cc1ccc(OP(=O)(O)C(=O)O)cc1,Active
23,Cc1ccc(OP(=O)(Oc2ccc(C)cc2)C(=O)Oc2ccccc2)cc1,Active
24,CCOP(=O)(Oc1ccc(Cl)cc1)C(=O)Oc1ccccc1 (configuration not stated),Active

# System: Human alphaherpesvirus 1
# Test: Evaluated for antiviral activity against cutaneous HSV-1 C42 infections in guinea pig; Not active
# Assay type: functional, organism-based
row,Structure (SMILES),Effect
1,O=C(OCC1CCCC1)P(=O)(O)O,inactive
2,COP(=O)(OC)C(=O)OC(C)C,inactive
3,COP(=O)(OC)C(=O)OC1CCCCC1,inactive
4,COC(=O)P(=O)(OC)Oc1ccc(C(C)=O)cc1 (configuration not stated),inactive
5,CCCCOP(=O)(O)C(=O)OC,inactive
6,COC(=O)P(=O)(O)Oc1ccc2c(c1)CCC2,inactive
7,O=C(OCc1ccccc1)P(=O)(O)O,inactive
8,CCOP(=O)(OCC)C(=O)Oc1ccc(Cl)cc1,inactive
9,CCOC(=O)c1ccc(OC(=O)P(=O)(OC)OC)cc1,inactive
10,CCCCOC(=O)P(=O)(OC)OC,inactive
11,COC(=O)P(=O)(OC(C)C)OC(C)C,inactive
12,COP(=O)(OC)C(=O)OCC1CCCC1,inactive
13,CCOC(=O)c1ccc(OC(=O)P(=O)(OCC)OCC)cc1,inactive
14,COP(=O)(OC)C(=O)Oc1ccc(C)cc1,inactive
15,COP(=O)(OC)C(=O)Oc1ccccc1,inactive
16,CCCCOP(=O)(OCCCC)C(=O)OC,inactive
17,CC(C)OP(=O)(OC(C)C)C(=O)Oc1ccc([N+](=O)[O-])cc1,inactive

row,Structure (SMILES),Effect
1,CCOC(=O)P(=O)(O)OCC,inactive
2,CCOP(=O)(Oc1ccc(C(C)=O)cc1)C(=O)OC (configuration not stated),inactive
3,CCOP(=O)(OCC)C(=O)Oc1ccc(OC)cc1,inactive
4,CCOP(=O)(Oc1c(C)cccc1C)C(=O)OC (configuration not stated),inactive
5,COC(=O)P(=O)(O)Oc1c(C)cccc1C,inactive
6,COC(=O)P(=O)(OC)OC12CC3CC(CC(C3)C1)C2 (configuration not stated),inactive
7,COP(=O)(OC)C(=O)Oc1ccc([N+](=O)[O-])cc1,inactive
8,COP(=O)(OC)C(=O)OCc1ccccc1,inactive
9,CC(C)OC(=O)P(=O)(O)O,inactive
10,CCOC(=O)P(=O)(O)Oc1ccccc1,inactive
11,CCCCOC(=O)P(=O)(O)O,inactive
12,COP(=O)(OC)C(=O)Oc1ccc(Cl)c(Cl)c1,inactive
13,CCOP(=O)(Oc1ccc2c(c1)CCC2)C(=O)OC (configuration not stated),inactive
14,CCOC(=O)P(=O)(O)O,inactive
15,COP(=O)(O)C(=O)OCc1ccccc1,inactive
16,O=C(OC1CCCCC1)P(=O)(O)O,inactive
